Series [1] in a line: Cytotoxicity against rat L6 cells. Type of series: toxicity, cell-based.
For a further series, the system named is Leishmania donovani. The series can be described thus: Antitrypanosomal activity against Leishmania donovani amastigotes MHOM-ET-67/L8. Type of series: functional, organism-based.
The test system of another series is Trypanosoma cruzi. Briefly: Antitrypanosomal activity against Trypanosoma cruzi Tulahuen C4. It counts as functional, organism-based.
Series [2] has as its system Trypanosoma brucei rhodesiense. Briefly: Antitrypanosomal activity against Trypanosoma brucei rhodesiense STIB900 trypomastigotes incubated for 70 hrs by resazurin dye based microplate fluorometer. Type of series: functional, organism-based. To be noted: STIB900, 70 h.
The subject of series [3] is Trypanosoma brucei rhodesiense. The series can be described thus: Antitrypanosomal activity against Trypanosoma brucei rhodesiense. Type of series: functional, organism-based.

Calls of active or inactive are those of the source. No cut-off for these calls is given here.

As for `Cc1nc(-c2ccc(Cl)cc2)cc(-c2ccc(N3CCN(C)CC3)cc2)n1`, the values for the EC50 in series [1] and in series [2] were 5.3 µM and 0.6 µM, respectively. The result with Leishmania donovani and in the series on Trypanosoma cruzi was inactive.
For the molecule `CN1CCN(c2ccc(-c3cc(-c4ccccc4[N+](=O)[O-])nc(N)n3)cc2)CC1`, the EC50 (commonly the midpoint of the concentration-response curve) in series [1] stood at 7.1 µM; in series [2], 14 µM. Besides, the result in the series with Leishmania donovani and in the series with Trypanosoma cruzi was inactive.
Consider `CN1CCN(c2ccc(-c3cc(-c4cccc(Cl)c4)ncn3)cc2)CC1`, for which the EC50 in series [1] was determined as 36.3 µM; in series [2], 1.7 µM. Further, the outcome with Leishmania donovani and with Trypanosoma cruzi was inactive.
Take `Cc1nc(-c2ccc(N3CCN(C)CC3)cc2)cc(-c2ccccc2Br)n1`: the EC50 in series [1] is 35.2 µM; in series [2], 4.3 µM. Besides, the result in the series with Leishmania donovani and in the series on Trypanosoma cruzi was inactive.
Consider `CN1CCN(c2ccc(-c3cc(-c4cccc(Cl)c4)nc(N)n3)cc2)CC1`, for which the EC50 was 79.7 µM in series [1] and 1.7 µM in series [2]. For the same molecule, the outcome with Leishmania donovani and with Trypanosoma cruzi was inactive.
With `CN1CCN(c2ccc(-c3cc(-c4ccccc4Br)ncn3)cc2)CC1`, the EC50 came to 39.6 µM in series [1] and 9.7 µM in series [2]. Besides, the outcome with Leishmania donovani and with Trypanosoma cruzi was inactive.
As to `CN1CCN(c2ccc(-c3cc(-c4ccccc4Cl)ncn3)cc2)CC1`, the EC50 was found to be 42.6 µM in series [1] and 5.8 µM in series [2]. In addition, the result in the series with Leishmania donovani and in the series on Trypanosoma cruzi was inactive.
In the case of `Cc1nc(-c2ccc(N3CCN(C)CC3)cc2)cc(-c2cccc(Cl)c2)n1`, the EC50 in series [1] was determined as 20.8 µM; in series [2] it was 1.7 µM. For the same molecule, the outcome in the series on Leishmania donovani and with Trypanosoma cruzi was inactive.
As for `CN1CCN(c2ccc(-c3cc(-c4ccccc4Br)nc(N)n3)cc2)CC1`, the EC50 in series [1] is 11.6 µM; in series [2], 10.3 µM. The result in the series with Leishmania donovani and in the series with Trypanosoma cruzi was inactive.
Take `CN1CCN(c2ccc(-c3cc(-c4ccccc4)nc(N)n3)cc2)CC1`: the EC50 in series [1] came to 30 µM; in series [2] it was 3.6 µM. The result with Leishmania donovani and with Trypanosoma cruzi was inactive.
`Cc1nc(-c2ccc(N3CCN(C)CC3)cc2)cc(-c2ccccc2[N+](=O)[O-])n1`: the EC50 in series [1] was 40.2 µM; in series [2], 13.5 µM. For the same molecule, the result with Leishmania donovani and in the series on Trypanosoma cruzi was inactive.
In the case of `Cc1nc(-c2ccc(N3CCN(C)CC3)cc2)cc(-c2ccc(Cl)cc2Cl)n1`, the EC50 is above 100 µM in series [1] and 10.1 µM in series [2]. Besides, the outcome in the series with Leishmania donovani and in the series with Trypanosoma cruzi was inactive.
With `CSc1ccc(OCc2ncc([N+](=O)[O-])n2C)cc1` [FEXINIDAZOLE], in series [3], a half-maximal response (EC50) required 0.76 µM and the EC90 (usually the point of the concentration-response curve where the effect stands at 90%) came to 0.76 µM.
As for `CN1CCN(c2ccc(-c3cc(-c4cccc(Br)c4)ncn3)cc2)CC1`, the results for the EC50 in series [1] and in series [2] were 64.5 µM and 1.6 µM, respectively. Also, the outcome in the series on Leishmania donovani and in the series with Trypanosoma cruzi was inactive.
Take `Cc1nc(-c2ccccc2)cc(-c2ccc(N3CCN(C)CC3)cc2)n1`: the EC50 came to 79.7 µM in series [1] and 2.8 µM in series [2]. The outcome in the series on Leishmania donovani and in the series on Trypanosoma cruzi was inactive.
For the molecule `CN1CCN(c2ccc(-c3cc(-c4ccccc4Cl)nc(N)n3)cc2)CC1`, the values for the EC50 in series [1] and in series [2] were 40 µM and 20.2 µM, respectively. Besides, the outcome in the series on Leishmania donovani and in the series with Trypanosoma cruzi was inactive.
`CN1CCN(c2ccc(-c3cc(-c4ccc(Cl)cc4Cl)nc(N)n3)cc2)CC1`: the EC50 in series [1] amounted to 7.4 µM; in series [2] it was 0.5 µM. The result in the series on Leishmania donovani and in the series on Trypanosoma cruzi was inactive.
In the case of `CN1CCN(c2ccc(-c3cc(-c4ccc(Cl)cc4Cl)ncn3)cc2)CC1`, the EC50 in series [1] is above 100 µM; in series [2], 2.4 µM. Moreover, the result in the series on Leishmania donovani and in the series on Trypanosoma cruzi was inactive.
In the case of `Cc1nc(-c2ccc(N3CCN(C)CC3)cc2)cc(-c2cccc(Cl)c2Cl)n1`, the EC50 in series [1] came to 37.3 µM; in series [2] it was 3.6 µM. Further, the outcome in the series on Leishmania donovani and in the series on Trypanosoma cruzi was inactive.
Consider `CN1CCN(c2ccc(-c3cc(-c4ccccc4[N+](=O)[O-])ncn3)cc2)CC1`, for which the EC50 in series [1] stood at 46.9 µM; in series [2], 15.2 µM. Further, the outcome in the series with Leishmania donovani and in the series on Trypanosoma cruzi was inactive.
Regarding `CN1CCN(c2ccc(-c3cc(-c4ccc(Cl)cc4)ncn3)cc2)CC1`, the EC50 is 16.4 µM in series [1] and 0.5 µM in series [2]. The outcome in the series on Leishmania donovani and with Trypanosoma cruzi was inactive.
For `CN1CCN(c2ccc(-c3cc(-c4cccc(Br)c4)nc(N)n3)cc2)CC1`, the EC50 in series [1] was 33.6 µM; in series [2], 1.1 µM. Besides, the outcome in the series with Leishmania donovani and in the series with Trypanosoma cruzi was inactive.
With `CN1CCN(c2ccc(-c3cc(-c4ccc(Br)cc4)nc(N)n3)cc2)CC1`, the values for the EC50 in series [1] and in series [2] were 5.1 µM and 1.6 µM, respectively. Moreover, the result with Leishmania donovani and in the series with Trypanosoma cruzi was inactive.
Regarding `Cc1nc(-c2ccc(Br)cc2)cc(-c2ccc(N3CCN(C)CC3)cc2)n1`, the half-maximal effective concentration (EC50) in series [1] was 11.2 µM; in series [2], 0.9 µM. Further, the outcome in the series with Leishmania donovani and in the series with Trypanosoma cruzi was inactive.
For `CN1CCN(c2ccc(-c3cc(-c4ccccc4)ncn3)cc2)CC1`, the values for the concentration for a half-maximal effect (EC50) in series [1] and in series [2] were 42.7 µM and 3.8 µM, respectively. The result in the series with Leishmania donovani and in the series with Trypanosoma cruzi was inactive.
Take `CN1CCN(c2ccc(-c3cc(-c4ccc(Cl)cc4)nc(N)n3)cc2)CC1`: the EC50 in series [1] is 13 µM; in series [2] it was 1.8 µM. The result with Leishmania donovani and with Trypanosoma cruzi was inactive.
`CN1CCN(c2ccc(-c3cc(-c4ccc(Br)cc4)ncn3)cc2)CC1`: the results for the EC50 in series [1] and in series [2] were 14.4 µM and 0.6 µM, respectively. For the same molecule, the outcome in the series with Leishmania donovani and in the series on Trypanosoma cruzi was inactive.
In the case of `Cc1nc(-c2ccc(N3CCN(C)CC3)cc2)cc(-c2cccc(Br)c2)n1`, the EC50 in series [1] was 21.1 µM; in series [2] it was 1.6 µM. For the same molecule, the result in the series with Leishmania donovani and in the series on Trypanosoma cruzi was inactive.
For `COc1cc([C@@H]2c3cc4c(cc3[C@H](O)[C@H]3COC(=O)[C@H]23)OCO4)cc(OC)c1OC` [PODOFILOX], in series [1], the EC50 is 0.02 µM.
`CN1CCN(c2ccc(-c3cc(-c4cccc(Cl)c4Cl)ncn3)cc2)CC1`: the results for the EC50 in series [1] and in series [2] were 18.1 µM and 1.8 µM, respectively. For the same molecule, the outcome with Leishmania donovani and in the series with Trypanosoma cruzi was inactive.

The values above are taken from ChEMBL document CHEMBL5576069, “Novel 4-[4-(4-methylpiperazin-1-yl)phenyl]-6-arylpyrimidine derivatives and their antitrypanosomal activities against T.brucei” (Bioorg Med Chem Lett, 2024).
